Test results taken from ChEMBL document CHEMBL1201862, “PubChem BioAssay data set” (2004).
Active and inactive are the calls of the source.

Experiments:
Assay type in all cases: functional
Protein RecA = biological target: T1, Protein RecA (Mycobacterium tuberculosis, UniProt P9WHJ3); assay: Fluorescence Cell-Free Homogeneous Dose Retest to Identify Inhibitors of RecA-Intein Splicing Activity. [Related pubchem assays (depositor defined):AID2097, AID2223, AID489010, AID492950]
T1 sequence (P9WHJ3 whole entry): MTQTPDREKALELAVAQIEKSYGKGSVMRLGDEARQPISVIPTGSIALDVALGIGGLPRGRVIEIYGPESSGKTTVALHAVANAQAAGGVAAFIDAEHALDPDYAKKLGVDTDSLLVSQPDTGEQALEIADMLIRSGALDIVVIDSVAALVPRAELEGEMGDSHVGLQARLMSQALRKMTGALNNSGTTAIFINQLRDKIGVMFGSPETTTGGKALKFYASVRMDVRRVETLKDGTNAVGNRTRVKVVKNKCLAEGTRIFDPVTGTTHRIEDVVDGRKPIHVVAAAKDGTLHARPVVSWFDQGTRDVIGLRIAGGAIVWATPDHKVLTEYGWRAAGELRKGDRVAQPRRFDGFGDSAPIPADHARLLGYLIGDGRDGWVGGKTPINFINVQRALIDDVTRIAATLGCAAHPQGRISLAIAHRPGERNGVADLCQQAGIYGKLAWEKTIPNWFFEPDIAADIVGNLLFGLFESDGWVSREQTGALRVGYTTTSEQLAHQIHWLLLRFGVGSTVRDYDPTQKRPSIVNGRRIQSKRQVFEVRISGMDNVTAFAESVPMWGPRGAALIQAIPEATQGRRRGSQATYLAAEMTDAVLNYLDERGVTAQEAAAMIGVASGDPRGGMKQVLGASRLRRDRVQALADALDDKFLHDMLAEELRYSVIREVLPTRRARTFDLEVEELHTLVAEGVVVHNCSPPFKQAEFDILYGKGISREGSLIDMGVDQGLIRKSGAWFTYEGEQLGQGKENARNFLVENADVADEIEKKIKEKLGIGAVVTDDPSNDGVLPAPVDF

[1] = biological target: Serine/threonine-protein kinase pim-1 (Homo sapiens, UniProt P11309)
[2] = biological target: Cyclin-dependent kinase 8 (Homo sapiens, UniProt P49336); assay: Navigating the Kinome. Panel member name: CDK8
[3] = biological target: T2, Serine/threonine-protein kinase PLK4 (Homo sapiens, UniProt O00444);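 further: PLK4 measured as one member of a kinome-wide kinase profiling panel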
T2 sequence (O00444 whole entry): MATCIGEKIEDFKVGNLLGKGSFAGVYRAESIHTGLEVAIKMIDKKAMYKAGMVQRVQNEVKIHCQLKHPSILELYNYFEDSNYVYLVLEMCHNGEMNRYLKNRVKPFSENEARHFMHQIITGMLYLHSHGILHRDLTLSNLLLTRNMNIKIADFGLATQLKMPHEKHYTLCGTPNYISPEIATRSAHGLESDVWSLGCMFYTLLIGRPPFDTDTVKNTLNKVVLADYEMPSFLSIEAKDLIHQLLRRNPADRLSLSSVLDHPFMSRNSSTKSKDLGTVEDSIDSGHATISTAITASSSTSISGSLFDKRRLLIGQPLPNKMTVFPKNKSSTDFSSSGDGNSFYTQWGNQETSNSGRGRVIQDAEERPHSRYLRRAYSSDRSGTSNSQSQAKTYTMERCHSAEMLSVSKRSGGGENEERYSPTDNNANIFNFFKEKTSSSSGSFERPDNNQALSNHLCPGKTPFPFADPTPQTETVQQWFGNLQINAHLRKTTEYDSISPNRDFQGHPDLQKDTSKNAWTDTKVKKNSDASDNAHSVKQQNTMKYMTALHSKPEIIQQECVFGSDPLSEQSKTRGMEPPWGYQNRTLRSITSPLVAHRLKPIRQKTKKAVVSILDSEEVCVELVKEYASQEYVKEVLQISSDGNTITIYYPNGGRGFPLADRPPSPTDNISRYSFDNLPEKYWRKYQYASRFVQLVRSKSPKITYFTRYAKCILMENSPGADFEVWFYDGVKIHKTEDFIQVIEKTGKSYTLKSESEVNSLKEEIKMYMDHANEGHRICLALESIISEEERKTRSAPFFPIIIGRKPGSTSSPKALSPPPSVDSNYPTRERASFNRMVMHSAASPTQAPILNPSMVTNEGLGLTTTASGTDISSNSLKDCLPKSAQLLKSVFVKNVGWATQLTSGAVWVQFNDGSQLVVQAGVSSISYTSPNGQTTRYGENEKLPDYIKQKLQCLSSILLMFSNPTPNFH

[4] = biological target: Fibroblast growth factor receptor 1 (Homo sapiens, UniProt P11362)
[5] = biological target: Dual specificity mitogen-activated protein kinase kinase 1 (Homo sapiens, UniProt Q02750); assay: Navigating the Kinome. Panel member name: MAP2K1
[6] = biological target: Death-associated protein kinase 3 (Homo sapiens, UniProt O43293);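 further: measured as one member of a kinome-wide profiling panel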
[7] = biological target: RAC-gamma serine/threonine-protein kinase (Homo sapiens, UniProt Q9Y243)
[8] = biological target: cAMP-dependent protein kinase catalytic subunit alpha (Homo sapiens, UniProt P17612)
[9] = biological target: Dual specificity tyrosine-phosphorylation-regulated kinase 1A (Homo sapiens, UniProt Q13627);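 further: measured against DYRK1A as one member of a broad kinome profiling panel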

Chain of RAC-gamma serine/threonine-protein kinase (Q9Y243 whole entry): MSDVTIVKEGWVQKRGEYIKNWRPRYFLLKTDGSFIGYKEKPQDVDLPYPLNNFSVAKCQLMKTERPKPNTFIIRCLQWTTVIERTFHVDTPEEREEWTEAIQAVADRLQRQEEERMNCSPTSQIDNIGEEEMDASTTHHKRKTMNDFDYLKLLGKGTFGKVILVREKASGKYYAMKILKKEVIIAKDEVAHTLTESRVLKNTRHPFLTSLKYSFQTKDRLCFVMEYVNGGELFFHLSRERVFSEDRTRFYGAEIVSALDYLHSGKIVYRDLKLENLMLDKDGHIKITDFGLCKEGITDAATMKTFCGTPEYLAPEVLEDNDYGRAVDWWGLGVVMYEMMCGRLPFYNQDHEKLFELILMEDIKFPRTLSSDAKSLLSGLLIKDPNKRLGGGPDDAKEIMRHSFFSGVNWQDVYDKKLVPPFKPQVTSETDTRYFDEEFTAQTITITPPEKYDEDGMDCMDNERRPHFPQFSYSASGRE
Chain of Dual specificity mitogen-activated protein kinase kinase 1 (Q02750 whole entry): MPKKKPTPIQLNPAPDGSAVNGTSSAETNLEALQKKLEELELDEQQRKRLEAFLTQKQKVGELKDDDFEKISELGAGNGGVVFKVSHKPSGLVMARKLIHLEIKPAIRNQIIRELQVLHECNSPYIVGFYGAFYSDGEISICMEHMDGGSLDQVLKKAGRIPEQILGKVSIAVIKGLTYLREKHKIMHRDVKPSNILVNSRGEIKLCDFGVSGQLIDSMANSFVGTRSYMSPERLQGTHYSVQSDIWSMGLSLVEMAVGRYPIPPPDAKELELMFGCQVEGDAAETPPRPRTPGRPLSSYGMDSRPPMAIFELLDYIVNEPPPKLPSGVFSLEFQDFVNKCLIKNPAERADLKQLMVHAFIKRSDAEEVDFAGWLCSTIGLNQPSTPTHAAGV
Chain of Death-associated protein kinase 3 (O43293 whole entry): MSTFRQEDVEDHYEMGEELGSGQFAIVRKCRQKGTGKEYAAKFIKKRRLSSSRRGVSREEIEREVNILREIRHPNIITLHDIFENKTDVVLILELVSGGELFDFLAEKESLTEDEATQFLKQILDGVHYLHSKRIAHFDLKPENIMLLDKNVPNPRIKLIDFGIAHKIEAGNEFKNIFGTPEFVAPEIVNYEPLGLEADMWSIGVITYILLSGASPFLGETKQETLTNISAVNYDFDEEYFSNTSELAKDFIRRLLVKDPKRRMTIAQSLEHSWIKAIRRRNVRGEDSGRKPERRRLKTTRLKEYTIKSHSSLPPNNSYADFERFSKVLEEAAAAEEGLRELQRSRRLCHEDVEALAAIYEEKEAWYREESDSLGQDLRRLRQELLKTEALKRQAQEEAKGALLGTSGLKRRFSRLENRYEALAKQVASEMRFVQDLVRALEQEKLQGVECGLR
Chain of Serine/threonine-protein kinase pim-1 (P11309 whole entry): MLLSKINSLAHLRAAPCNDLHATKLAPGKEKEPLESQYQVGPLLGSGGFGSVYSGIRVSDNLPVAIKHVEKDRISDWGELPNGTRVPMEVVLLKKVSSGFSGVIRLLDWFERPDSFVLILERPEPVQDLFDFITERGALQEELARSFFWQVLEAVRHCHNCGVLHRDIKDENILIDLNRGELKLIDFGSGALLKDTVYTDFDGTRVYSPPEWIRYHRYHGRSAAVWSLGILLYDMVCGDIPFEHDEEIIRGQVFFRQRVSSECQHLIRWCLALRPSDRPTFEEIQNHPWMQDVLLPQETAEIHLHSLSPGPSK
Chain of Fibroblast growth factor receptor 1 (P11362 whole entry): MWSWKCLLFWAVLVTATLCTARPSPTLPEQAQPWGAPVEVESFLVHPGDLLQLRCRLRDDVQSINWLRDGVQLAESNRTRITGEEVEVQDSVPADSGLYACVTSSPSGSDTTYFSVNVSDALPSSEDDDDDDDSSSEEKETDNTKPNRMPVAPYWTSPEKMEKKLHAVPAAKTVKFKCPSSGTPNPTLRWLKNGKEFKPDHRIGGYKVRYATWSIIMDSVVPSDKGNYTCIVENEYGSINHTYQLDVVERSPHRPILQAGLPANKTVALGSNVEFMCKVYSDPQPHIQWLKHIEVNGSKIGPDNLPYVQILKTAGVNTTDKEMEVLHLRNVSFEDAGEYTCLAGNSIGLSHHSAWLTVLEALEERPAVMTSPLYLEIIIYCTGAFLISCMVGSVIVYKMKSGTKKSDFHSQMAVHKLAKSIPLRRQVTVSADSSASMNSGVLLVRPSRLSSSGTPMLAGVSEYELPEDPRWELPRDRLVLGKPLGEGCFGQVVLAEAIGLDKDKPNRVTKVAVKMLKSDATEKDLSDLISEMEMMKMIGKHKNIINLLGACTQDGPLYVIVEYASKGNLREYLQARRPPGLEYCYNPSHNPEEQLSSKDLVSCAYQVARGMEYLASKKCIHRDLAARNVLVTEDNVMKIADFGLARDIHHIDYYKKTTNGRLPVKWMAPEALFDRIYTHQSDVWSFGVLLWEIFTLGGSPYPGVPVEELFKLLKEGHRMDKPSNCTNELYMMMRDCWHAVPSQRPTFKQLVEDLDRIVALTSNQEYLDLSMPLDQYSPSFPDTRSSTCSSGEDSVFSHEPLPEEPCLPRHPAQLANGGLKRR
Chain of Cyclin-dependent kinase 8 (P49336 whole entry): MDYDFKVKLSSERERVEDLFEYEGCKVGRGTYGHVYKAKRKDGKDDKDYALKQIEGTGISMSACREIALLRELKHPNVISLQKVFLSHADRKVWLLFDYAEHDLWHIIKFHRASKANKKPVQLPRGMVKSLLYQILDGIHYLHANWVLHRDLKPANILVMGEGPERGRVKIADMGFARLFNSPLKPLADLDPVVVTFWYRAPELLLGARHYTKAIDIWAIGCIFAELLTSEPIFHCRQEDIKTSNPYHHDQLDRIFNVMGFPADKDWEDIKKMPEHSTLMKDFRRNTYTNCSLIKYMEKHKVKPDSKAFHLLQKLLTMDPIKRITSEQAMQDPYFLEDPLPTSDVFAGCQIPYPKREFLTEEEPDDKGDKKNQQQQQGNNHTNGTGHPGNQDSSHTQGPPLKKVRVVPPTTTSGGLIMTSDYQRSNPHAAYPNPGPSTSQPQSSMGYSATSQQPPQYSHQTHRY

SMILES | EC50 (Protein RecA) | Ki [1] | Ki [2] | Ki [3] | Ki [4] | Ki [5] | Ki [6] | Ki [7] | Ki [8] | Ki [9]
Cc1c(/N=C2\C=CC(=O)c3ccccc32)c(=O)n(-c2ccccc2)n1C | 0.768 µM (active) | – | – | – | – | – | – | – | – | –
COC(=O)CCS(=O)(=O)c1nc(-c2ccccc2)cc(C(F)(F)F)n1 | 4.56 µM (active) | – | – | – | – | – | – | – | – | –
O=C(O)c1ccc2c3c(ncnc13)-c1ccccc1C2=O | 1.77 µM (active) | – | – | – | – | – | – | – | – | –
O=C(O)c1ccc(NC2=C(Cl)C(=O)c3ccccc3C2=O)cc1 | 1.22 µM (active) | – | – | – | – | – | – | – | – | –
COc1cc2c(cc1F)C(c1ccccc1Cl)=Nc1c(n[nH]c1C)N2 [RG-1530] | – | > 5.01 µM (inactive) | > 3.98 µM (inactive) | 0.0126 µM (active) | 0.0501 µM (active) | 2 µM (active) | > 1.26 µM (inactive) | > 10 µM (inactive) | > 3.16 µM (inactive) | > 0.794 µM (inactive)
Cc1ccc2nccc(NC(=O)Nc3cccc(C(F)(F)F)n3)c2c1 | – | > 3.16 µM (inactive) | 0.2 µM (active) | > 3.98 µM (inactive) | > 3.98 µM (inactive) | > 3.16 µM (inactive) | > 1.26 µM (inactive) | > 10 µM (inactive) | > 7.94 µM (inactive) | > 1 µM (inactive)
Cc1nn(C)c2sc3c(=O)[nH]cnc3c12 | – | 31.6 µM (active) | 25.1 µM (active) | > 39.8 µM (inactive) | > 50.1 µM (inactive) | 100 µM (active) | 50.1 µM (active) | > 100 µM (inactive) | 50.1 µM (active) | 25.1 µM (active)
